Data set [1] has as its system HMOX1 mRNA. The data set is described as follows: HMOX1 (HO-1) mRNA upregulation in human bronchial epithelial cells (NHBE). In kind it is cell-based. The note with it: 48 hours post transfection, mean of 3 donors. The protocol:
Human Bronchial Epithelial cells (NHBE cells) obtained from Lonza (Cat. No. CC-2540) were grown at 37deg in the presence of 5% CO2 and cultured in BEBM basal medium (Lonza, Cat. No. CC-3171) on Biocoat Collagen1 coated flasks (Becton Dickinson). NHBE cells were plated in collagen 1 coated plates and cultured in appropriate culture media. The cells were cultured for 24 hours after plating at 37 degrees in the presence of 5% CO2. siNAs were diluted in OptiMEM 1 to 1 uM and the transfection agent to 25 ug/ml. For formulation of the siNAs equal volumes of the diluted siNA and delivery lipid were combined and incubated for 20 minutes at room temperature. Cells were meanwhile trypsinised and resuspended in antibiotic free BEBM media at 150,000 cells/ml. 20 ul of the formulated siNA and 80 ul of BEBM media was added per well of a 96 well plate (6 replicates/data point/siNA concentration) so as to give a nine point dose range of the siNAs (100 nM, 30 nM, 10 nM, 3 nM, 1 nM, 0.3 nM, 0.1 nM, 0.03 nM, 0.01 nM). The time of incubation with the transfection-siNA complexes were 48 hours with one change of media at 24 hours. Total RNA was isolated from the cells in the 96-well plate format using the Automated SV96 Total RNA Isolation System (Promega) according to the manufacturer's instructions. The Biomek 2000 Laboratory Automation Workstation (Beckman Coulter) was used to apply the transfected cell lysates to a silica membrane. RNase-Free DNase I was then applied directly to the silica membrane to digest contaminating genomic DNA. The bound total RNA was further purified from contaminating salts, proteins and cellular impurities by simple washing steps. Finally, total RNA was eluted from the membrane by the addition of Nuclease-Free Water. A series of probes and primers were used for the detection of mRNA transcripts of Bach1, OAS1, IL8 and GAPDH (as control/normalisation) in the human cell lines. The assays were performed on an ABI 7900HT instrument according to the manufacturer's instructions. Primer Probe sets used: With Taqman data critical threshold values (Ct) were converted to copy numbers corresponding to the particular gene analysed in each well of the 384 well plate. Six identical wells were prepared in each plate for a given treatment. […] Relative abundance (aka relative expression) of a gene was determined by dividing the mean copy number of that gene with its GAPDH counterpart in that particular sample. EC50 values were calculated from the data using sigma plot. All calculations of the efficacy and potency of the siNAs were done relative to the non-targeting control siNA. Percentage knockdown was compared between the four lead siNA's. The data was analysed using an ANOVA test and then the p-values were corrected for multiple comparisons using the False Discovery Rate correction (FDR).

The test system of data set [2] is Bach1 mRNA. The data set is described as follows: Initial screen: Bach1 mRNA knock-down in human A549 cells (96-well transfection, quantitative RT-PCR). In kind it is cell-based. Particulars: for % KD: Bach1 mRNA, 10 nM siNA, human A549 cells, n = 2, mean ± S.D., normalized to GAPDH and non-targeting control, 24 hrs post-transfection; for % KD Bach1: Table 5, Bach1 mRNA screening data, A549 cells.

As for “29947-DC (sense GGAAUCCUGCUUUCAGUUUTT; antisense AAACUGAAAGCAGGAUUCCUU; inverted abasic caps (B), 2'-modified nucleotides, further chemistry not given here)”, in data set [1], the “Maximum HMOX1 upregulation” value was determined as 1566%. For the same substance, in data set [2], the “% KD” value is recorded as 83.4 ± 6.9% and the “% KD Bach1” value was found to be 83.4 ± 6.9%.

On to “29956-DC (sense GUCUGAGUGUCCGUGGUUATT; antisense UAACCACGGACACUCAGACUU; inverted abasic caps (B), 2'-modified nucleotides, further chemistry not given here)”, for which, in data set [1], a half-maximal response (EC50) required 0.0331 µM and the “Maximum HMOX1 upregulation” value is recorded as 2416%. In addition, in data set [2], the “% KD” value turned out to be 75.8 ± 7.7% and the “% KD Bach1” value turned out to be 75.8 ± 7.7%.

Regarding “29957-DC (sense GCAGUUACUUCCACUCAAGTT; antisense CUUGAGUGGAAGUAACUGCUU; inverted abasic end caps, TT overhangs, modified nucleotides, further chemistry not given here)”, in data set [1], a half-maximal effect (EC50) was put at 0.0298 µM and the “Maximum HMOX1 upregulation” value worked out at 290%. In addition, in data set [2], the “% KD” value stood at 84.6 ± 5.4% and the “% KD Bach1” value amounted to 84.6 ± 5.4%.

Turning to “29961-DC (sense CUACACUGCUAAACUGAUUTT; antisense AAUCAGUUUAGCAGUGUAGUU; inverted abasic end caps, TT overhangs, modified nucleotides, further chemistry not given here)”, in data set [1], the EC50 is 0.0504 µM and the “Maximum HMOX1 upregulation” value turned out to be 10266%. Also, in data set [2], the “% KD” value worked out at 90 ± 1.3% and the “% KD Bach1” value amounted to 90 ± 1.3%.

“29964-DC (sense GAUUUGCAGGUGAUGUUAATT; antisense UUAACAUCACCUGCAAAUCUU; inverted abasic end caps, TT overhangs, modified nucleotides, further chemistry not given here)”: in data set [1], a half-maximal effect (EC50) was put at 0.0303 µM and the “Maximum HMOX1 upregulation” value was 4800%. In data set [2], the “% KD” value is given as 90.1 ± 0.8% and the “% KD Bach1” value came to 90.1 ± 0.8%.

For “29984-DC (sense GUUAAAGGAUUUGAACCUUTT; antisense AAGGUUCAAAUCCUUUAACUU; inverted abasic end caps, TT overhangs, modified nucleotides, further chemistry not given here)”, the “Maximum HMOX1 upregulation” value in data set [1] is listed as 153%. The “% KD” value in data set [2] is 66.2 ± 15.3%.

“29988-DC (sense AUUUGAACCUUUAAUUCAGTT; antisense CUGAAUUAAAGGUUCAAAUUU; inverted abasic end caps, TT overhangs, modified nucleotides, further chemistry not given here)”: in data set [1], the midpoint of the response, the EC50, lay at 0.0345 µM and the “Maximum HMOX1 upregulation” value is 550%. For the same substance, in data set [2], the “% KD” value was found to be 86.2 ± 3.1% and the “% KD Bach1” value turned out to be 86.2 ± 3.1%.
